# In ChEMBL document CHEMBL1139127, “Structural modifications of (1S,3S)-3-amino-4-difluoromethylenecyclopentanecarboxylic acid, a potent irreversible inhibitor of GABA aminotransferase” (Bioorg Med Chem Lett, 2007):
# Activity calls are given as the source filed them. The rule behind the calls is not given here.
# Legend:
# [1] = molecular target: 4-aminobutyrate aminotransferase, mitochondrial (Homo sapiens) (UniProt P80404); experiment: Inhibition of GABA-AT at 1.7 mM
# [2] = molecular target: 4-aminobutyrate aminotransferase, mitochondrial (Homo sapiens) (UniProt P80404); experiment: Inhibition of GABA-AT at 10 mM assessed as residual activity
# Sequence of 4-aminobutyrate aminotransferase, mitochondrial (Homo sapiens) (P80404 whole entry): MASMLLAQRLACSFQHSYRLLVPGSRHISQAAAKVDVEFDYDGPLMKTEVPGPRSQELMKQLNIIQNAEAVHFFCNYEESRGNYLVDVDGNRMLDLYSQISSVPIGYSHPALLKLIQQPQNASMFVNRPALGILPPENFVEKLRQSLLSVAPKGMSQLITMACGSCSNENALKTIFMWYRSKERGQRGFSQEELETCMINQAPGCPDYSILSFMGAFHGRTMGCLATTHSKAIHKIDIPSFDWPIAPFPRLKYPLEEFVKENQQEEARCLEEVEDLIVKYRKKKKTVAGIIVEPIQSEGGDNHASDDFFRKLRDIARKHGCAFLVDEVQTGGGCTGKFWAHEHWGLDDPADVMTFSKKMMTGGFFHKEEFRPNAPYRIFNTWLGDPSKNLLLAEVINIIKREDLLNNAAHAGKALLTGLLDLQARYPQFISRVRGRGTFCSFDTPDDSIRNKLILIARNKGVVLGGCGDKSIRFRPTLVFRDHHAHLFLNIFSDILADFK
structure (smiles),measurement,setting,value
N[C@H]1C[C@@H](C(=O)O)CC1=C(Cl)Cl,Activity,[1],inactive
same,Activity,[2],58%
